Source: US3962282A, “Juvenile hormone mimics” (priority 1974, dated 1976)

Key:
Assay type in all cases: in vivo
milkweed bug = assay: topical application to milkweed bug, fourth nymphal stage, maturation inhibition
Description: (§1) The compounds were applied in acetone solution at concentrations of 10 percent, 1 percent and 0.5 percent. One microliter of the acetone solution was applied to each test specimen. Ten test specimens were employed for each insect at each concentration and compared to ten acetone controls and ten zero controls. Approximately eight to ten days were required before results could be ascertained.
(§2) The insect species used in the test were Tenebrio molitor pupae; milkweed bug, fourth nymphal stage; wax moth, fifth larval stage; and Mexican bean beetle, fourth larval stage. At the completion of the test, each specimen was examined for the degree of juvenile and adult characteristics. The milkweed bug, wax moth, and Mexican bean beetle were assigned a numerical rating of 0 to 3 with 0 indicating no effect and 3 indicating the maximum effect or least adult development. Because of differences in morphology the Tenebrio rating scale was 0 to 4. In all cases a rating of 2 or higher means that the insect is incapable of reproduction. The number of specimens in each rating classification are given. In any test were the total of specimens reported is less than 10, those unreported died in some metamorphic stage. Such deaths indicate control, since the dead insects are not capable of reproducing.

Mexican bean beetle = assay: topical application to Mexican bean beetle, fourth larval stage, maturation inhibition
Description: as §1, §2

wax moth = assay: topical application to wax moth, fifth larval stage, maturation inhibition
Description: as §1, §2

Tenebrio molitor pupae = assay: topical application to Tenebrio molitor pupae, maturation inhibition
Description: as §1, §2

[1] = 10% in acetone, 1 microliter topical, rating scale 0 (no effect) to 3 (maximum)
[2] = 10% in acetone, 1 microliter topical, rating scale 0 (no effect) to 4 (maximum)

Row | SMILES | number of specimens in rating 0 (milkweed bug; 0.5%, rating scale 0-3) | number of specimens in rating 0 (milkweed bug; 1%, rating scale 0-3) | number of specimens in rating 3 (milkweed bug; 1%, rating scale 0-3) | number of specimens in rating 3 (milkweed bug; 10%, rating scale 0-3) | number of specimens in rating 0 (Mexican bean beetle; 0.5%, rating scale 0-3) | number of specimens in rating 0 (Mexican bean beetle; 1%, rating scale 0-3) | number of specimens in rating 3 (Mexican bean beetle; 1%, rating scale 0-3) | number of specimens in rating 3 (Mexican bean beetle; 10%, rating scale 0-3) | number of specimens in rating 0 (wax moth; 0.5%, rating scale 0-3) | number of specimens in rating 0 (wax moth; 1%, rating scale 0-3) | number of specimens in rating 0 (wax moth; [1]) | number of specimens in rating 0 (Tenebrio molitor pupae; 0.5%, rating scale 0-4) | number of specimens in rating 0 (Tenebrio molitor pupae; 1%, rating scale 0-4) | number of specimens in rating 4 (Tenebrio molitor pupae; 10%, rating scale 0-4) | number of specimens in rating 1 (milkweed bug; 0.5%, rating scale 0-3) | number of specimens in rating 3 (milkweed bug; 0.5%, rating scale 0-3) | number of specimens in rating 1 (Tenebrio molitor pupae; 0.5%, rating scale 0-4) | number of specimens in rating 4 (Tenebrio molitor pupae; 1%, rating scale 0-4) | number of specimens in rating 3 (Mexican bean beetle; 0.5%, rating scale 0-3) | number of specimens in rating 4 (Tenebrio molitor pupae; 0.5%, rating scale 0-4) | other results
1 | CC(C)=CCC/C(C)=C/CCc1cccc(C)c1 [trans-2,6-dimethyl-9-(3-tolyl)-2,6-nonadiene] | 10 specimens | 5 specimens | 1 specimens | 10 specimens | 9 specimens | 1 specimens | 7 specimens | 10 specimens | 10 specimens | 10 specimens | 10 specimens | 10 specimens | 9 specimens | 10 specimens |  |  |  |  |  |  | number of specimens in rating 2 (milkweed bug; 1%, rating scale 0-3): 2 specimens; number of specimens in rating 2 (Mexican bean beetle; 0.5%, rating scale 0-3): 1 specimens; number of specimens in rating 1 (Mexican bean beetle; 1%, rating scale 0-3): 1 specimens; number of specimens in rating 2 (Mexican bean beetle; 1%, rating scale 0-3): 1 specimens; number of specimens in rating 2 (Tenebrio molitor pupae; 1%, rating scale 0-4): 1 specimens
2 | CC(C)=CCC/C(C)=C/CCc1ccc(C#N)cc1 [trans-4-(4,8-DIMETHYL-3,7-NONADIENYL)BENZONITRILE] | 3 specimens |  | 7 specimens | 10 specimens | 10 specimens | 10 specimens |  |  | 10 specimens | 10 specimens | 10 specimens | 10 specimens | 10 specimens | 1 specimens | 5 specimens | 1 specimens |  |  |  |  | number of specimens in rating 2 (milkweed bug; 0.5%, rating scale 0-3): 1 specimens; number of specimens in rating 2 (milkweed bug; 1%, rating scale 0-3): 3 specimens; number of specimens in rating 0 (Mexican bean beetle; [1]): 10 specimens; number of specimens in rating 0 (Tenebrio molitor pupae; [2]): 9 specimens
3 | CCCCCCCCCc1ccc2c(c1)OCO2 [5-(n-NONYL)-1,3-BENZODIOXOLE] | 8 specimens | 3 specimens | 4 specimens | 5 specimens | 9 specimens | 10 specimens |  | 8 specimens |  |  |  | 6 specimens | 2 specimens | 7 specimens | 1 specimens |  | 1 specimens | 1 specimens |  |  | number of specimens in rating 1 (milkweed bug; 1%, rating scale 0-3): 1 specimens; number of specimens in rating 2 (milkweed bug; 1%, rating scale 0-3): 1 specimens; number of specimens in rating 0 (milkweed bug; [1]): 4 specimens; number of specimens in rating 2 (milkweed bug; 10%, rating scale 0-3): 1 specimens; number of specimens in rating 2 (Tenebrio molitor pupae; 0.5%, rating scale 0-4): 3 specimens; number of specimens in rating 2 (Tenebrio molitor pupae; 1%, rating scale 0-4): 5 specimens; number of specimens in rating 3 (Tenebrio molitor pupae; 1%, rating scale 0-4): 1 specimens; number of specimens in rating 3 (Tenebrio molitor pupae; 10%, rating scale 0-4): 3 specimens
4 | CC(C)=CCC/C(C)=C/CCc1ccccc1 [2,6-DIMETHYL-9-PHENYL-2,6-NONADIENE] | 8 specimens | 2 specimens |  | 9 specimens |  |  | 10 specimens | 10 specimens | 10 specimens | 10 specimens | 10 specimens | 7 specimens | 6 specimens | 5 specimens | 1 specimens |  | 3 specimens |  | 10 specimens |  | number of specimens in rating 2 (milkweed bug; 0.5%, rating scale 0-3): 1 specimens; number of specimens in rating 1 (milkweed bug; 1%, rating scale 0-3): 1 specimens; number of specimens in rating 1 (Tenebrio molitor pupae; 1%, rating scale 0-4): 4 specimens; number of specimens in rating 2 (Tenebrio molitor pupae; 10%, rating scale 0-4): 1 specimens; number of specimens in rating 3 (Tenebrio molitor pupae; 10%, rating scale 0-4): 4 specimens
5 | CC(C)CCCC(C)CCCc1ccc2c(c1)OCO2 (centres unmarked) [9-(3,4-methylenedioxyphenyl)-2,6-dimethylnonane] |  |  | 10 specimens | 8 specimens |  |  |  |  |  |  |  |  |  | 10 specimens |  | 8 specimens |  | 10 specimens |  | 7 specimens | number of specimens in rating 3 (Tenebrio molitor pupae; 0.5%, rating scale 0-4): 3 specimens
6 | CC(C)=CCCC(C)=CCCc1cc2c(cc1Cl)OCO2 [9-(2-CHLORO-4,5-METHYLENEDIOXYPHENYL)-2,6-DIMETHYL-2,6-NONADIENE] | 9 specimens | 3 specimens | 6 specimens | 10 specimens | 10 specimens | 9 specimens | 10 specimens | 10 specimens | 10 specimens | 10 specimens | 8 specimens | 10 specimens | 10 specimens |  | 1 specimens |  |  |  |  |  | number of specimens in rating 1 (milkweed bug; 1%, rating scale 0-3): 1 specimens; number of specimens in rating 2 (Mexican bean beetle; 1%, rating scale 0-3): 1 specimens; number of specimens in rating 0 (Mexican bean beetle; [1]): 7 specimens; number of specimens in rating 1 (Mexican bean beetle; 10%, rating scale 0-3): 3 specimens; number of specimens in rating 2 (wax moth; 10%, rating scale 0-3): 1 specimens; number of specimens in rating 0 (Tenebrio molitor pupae; [2]): 10 specimens
7 | CCC1(C)OC1CCC(C)=CCCc1ccc2c(c1)OCO2 (centres unmarked) [3,4-EPOXY-3,7-DIMETHYL-10-(3,4-METHYLENEDIOXYPHENYL)-7-DECENE] | 2 specimens | 2 specimens | 8 specimens |  |  |  | 10 specimens |  |  |  |  |  |  | 10 specimens | 5 specimens |  |  | 10 specimens | 10 specimens | 10 specimens | number of specimens in rating 2 (milkweed bug; 0.5%, rating scale 0-3): 2 specimens; number of specimens in rating 2 (wax moth; 0.5%, rating scale 0-3): 1 specimens; number of specimens in rating 3 (wax moth; 0.5%, rating scale 0-3): 9 specimens; number of specimens in rating 3 (wax moth; 1%, rating scale 0-3): 10 specimens
8 | CC(C)=CCC/C(C)=C/CCc1cccs1 [trans-9-(2-THIENYL)-2,6-DIMETHYL-2,6-NONADIENE] | 10 specimens | 10 specimens |  | 4 specimens | 9 specimens | 5 specimens |  | 10 specimens |  |  |  | 8 specimens | 10 specimens | 9 specimens |  |  | 2 specimens |  |  |  | number of specimens in rating 0 (milkweed bug; [1]): 3 specimens; number of specimens in rating 1 (Mexican bean beetle; 0.5%, rating scale 0-3): 1 specimens; number of specimens in rating 1 (Mexican bean beetle; 1%, rating scale 0-3): 5 specimens; number of specimens in rating 1 (Tenebrio molitor pupae; 10%, rating scale 0-4): 1 specimens
9 | CCC(C)=CCCC(C)=CCCc1ccc2c(c1)OCO2 [3,7-DIMETHYL-10-(3,4-METHYLENEDIOXYPHENYL)-3,7-DECADIENE] |  |  | 9 specimens | 5 specimens |  |  |  |  |  |  |  |  |  | 10 specimens | 1 specimens | 8 specimens |  | 10 specimens |  | 10 specimens | 
10 | CC(C)=CCC/C(C)=C/CCc1ccc(Br)cc1 [trans-9-(4-BROMOPHENYL)-2,6-DIMETHYL-2,6-NONADIENE] |  |  | 10 specimens | 9 specimens |  |  | 10 specimens | 10 specimens |  |  |  | 8 specimens | 9 specimens | 10 specimens |  | 10 specimens | 1 specimens |  | 10 specimens | 1 specimens | number of specimens in rating 1 (Tenebrio molitor pupae; 1%, rating scale 0-4): 1 specimens
11 | CC(C)=CCC/C(C)=C/CCc1cccc(Br)c1 [trans-9-(3-BROMOPHENYL)-2,6-DIMETHYL-2,6-NONADIENE] |  |  | 10 specimens | 10 specimens | 8 specimens | 7 specimens | 2 specimens | 1 specimens |  |  |  | 8 specimens | 8 specimens |  |  | 10 specimens | 1 specimens |  | 1 specimens |  | number of specimens in rating 1 (Mexican bean beetle; 0.5%, rating scale 0-3): 1 specimens; number of specimens in rating 1 (Mexican bean beetle; 1%, rating scale 0-3): 1 specimens; number of specimens in rating 0 (Mexican bean beetle; [1]): 9 specimens; number of specimens in rating 2 (Tenebrio molitor pupae; 0.5%, rating scale 0-4): 1 specimens; number of specimens in rating 1 (Tenebrio molitor pupae; 1%, rating scale 0-4): 2 specimens; number of specimens in rating 0 (Tenebrio molitor pupae; [2]): 8 specimens; number of specimens in rating 1 (Tenebrio molitor pupae; 10%, rating scale 0-4): 2 specimens
